The subject of data set [1] is T cell response of human PBMC to allogenic stimulation by Namalwa cells. Kind of data set: Mixed Lymphocyte Reaction (proliferation and IFN-γ secretion). It counts as cell-based. As to conditions: 6 days; FIGS. 1-3. Here is the method:
This reaction measures the T cell response to allogenic stimulation by a mismatch of class II histocompatability antigens. This is triggered through the T cell receptor and activates the T cell to secrete and proliferate in response to endogenous IL-2. IFN-γ is also made in response to this stimulation and accumulates in the culture medium. Compounds are tested for their ability to block the proliferation and response to antigenic stimulation as well as their ability to produce IFN-γ as follows. A human B cell ine expressing class II antigen, Namalwa (American Type Culture Collection), is incubated for 2 hr at 37° C. in RPMI-10 containing mitomycin C (50 μg/ml). These cells are washed four times by centrifugation and resuspension (10^6 cells/ml) in SF-RPMI medium and are added to the wells of 96-well plate (50 μl/well) as stimulators. Mitomycin treatment prevents these cells from proliferating in the assay. Fresh PBMC are prepared as described above in example 1, but are not activated with PHA. Instead they are resuspended at 10^6 cells/ml and 100 μl is added per well. Dilutions of test compounds are added (50 μl/well) to give a final volume of 200 μl and the plates are incubated for 6 days at 37° C. During the last 18 hr, ^3 H-thymidine (DuPont-NEN- 1 μCi/well) is added as a measure of cell proliferation, cultures are collected using a cell harvester (Packard), and scintillation fluid is added prior to counting in a Packard Top Count scintillation counter. A sample of medium is also collected for measurement of IFN-γ production prior to the addition of ^3 H-thymidine for use as a negative control.

Data set [2] is described as follows: Cell viability (MTS) after treatment with bis-compound. The data set is classed as cell-based. As to conditions: human, pha-activated pbmc, 5 μg/ml. As to the method:
Human peripheral blood monocytes (PBMC) were obtained from commercial sources as a leukophoresis from a healthy volunteer and were purified by centrifugation on a Ficoll-Hypaque (Pharmacia) gradient (1700 rpm for 20 min). The "buffy" coat containing the PBMC was diluted with serum-free culture medium (SF-RPMI) to a volume of 50 ml and collected by centrifugation at 1500 rpm for 5 min. Cells were resuspended in cell culture medium containing 10% fetal bovine serum (RPMI-10) and phytohemaglutinin (PHA - 10 μg/ml) at a density of 5×10^6 cells/ml and were cultured for 3 days at 37° C. in a humidified CO2 incubator. The PHA-activated cells were collected by centrifugation, washed three times with an equal volume of SF-RPMI and resuspended in fresh RPMI-10 (1×10^6 cells /ml). Aliquots (100 μl) were dispensed into the wells of multiple 96-well plates to give a final cell number of 10^5 per well. Test compounds, dissolved in dimethyl sulfoxide (DMSO) at 1 mg/ml, were first diluted in culture medium to an intermediate concentration of 20 μg/ml and then were added (50 μwell) to a specific well of the plate for each compound. Stimulation medium (50 μl/well) containing 10% serum, IL-2 and IL-12 was added to final concentrations of 25 U/ml and 0.5 ng/ml, respectively. Control wells receive no IL-2 or IL-12 (negative control) or received both interleukins but no test compound (positive control). The plates were incubated for 48 hr at 37° C. in a CO2 incubator at which time aliquots (20 μl) were removed for analysis of IFN-γ concentration by ELISA. A quantitative ELISA was developed by coating 96-well plates with an mouse monoclonal antibody against human IFN-γ, 1 μg/ml in phosphate buffered saline (PBS) (Pestka Biological Laboratories), overnight at 4° C. Unbound antibody was washed off by washing three times with PBS. Non-specific antibody binding was blocked with a solution of 1% bovine serum albumin (BSA) and 1% goat serum in PBS (150 μl/well) which was incubated for 2 hr at 37° C. After washing the blocked plates four times with PBS, test samples and dilutions of the IFN-γ standard are added in a final volume of 100 μl/well. Following an overnight incubation at 4° C., the plates are washed four times with PBS, and a polyclonal rabbit antiserum against human IFN-γ (1/10000 dilution--Petska Biological Laboratories) is added. After an additional incubation for 1 hr at 37° C. and four washes with PBS, a polyclonal donkey anti-rabbit detecting antibody, conjugated to horseradish peroxidase (1/700 dilution--Petska Biological Laboratories) is added for 1 hr at 37° C. The plates are then washed four times with PBS and 100 μl of K-blue substrate E(ILISA Technologies, Neogen Corp.) is added until the color in the wells containing the standard curve is sufficiently developed, at which time 100 μl of "Red-stop" solution (ELISA Technologies) is added. The absorbance of the solution within each well of the plate is then read at 650 nm using an ELISA plate reader (Dynatech MR7000). The amount of IFN-γ is calculated by comparing the optical density of the test sample with a standard curve derived from the dilutions of the control IFN-y. […] MTS is a chemical chromophore that is metabolized in the mitochondria of viable cells to produce a color which increases in intensity in proportion to the numbers of viable cells. The absorbance of the cell culture can be compared to control cultures in order to determine the percent viability.

With `Cc1cc(C)c(O)c(C(CC(C)CC(C)(C)C)c2cc(C)cc(C)c2O)c1` (stereo not shown) [Compound 51853, bis-1,1-[2-hydroxy-3,5-dimethylphenyl]-3,5,5-dimethyl hexan], the “inhibition of IFN-γ secretion versus cell proliferation (in words)” value in data set [1] is recorded as “more potent inhibitors of secretion at concentrations that do not effect cell proliferation”. The viability in data set [2] is 104%.

With `CCCCCCCC(c1cc(C)cc(C)c1O)c1cc(C)cc(C)c1O` [Compound 51852], the “inhibition of IFN-γ secretion versus cell proliferation (in words)” value in data set [1] was “more potent inhibitors of secretion at concentrations that do not effect cell proliferation”. Besides, the viability in data set [2] was 105%.

(Values after patent publication US5880146A, “Inhibition of IL-12-induced IFN-γ synthesis by specific bis-phenol compounds as a method of immune modulation” (Fuji ImmunoPharmaceuticals Corporation, priority 1995, dated 1999).)
